{"source": "patent US20240374879A1", "about": "“METHODS AND COMPOSITIONS TO REDUCE CELLULAR DEPOSITION, AND HYDROCEPHALUS SHUNT FAILURE” (Wayne State University, priority 2021, published 2024)", "tested_on": "Human astrocyte cells", "test": "Cell counts of human astrocytes cultured on PDMS discs, GIT 27 as pre-, simultaneous or post-treatment", "format": "cell-based", "settings": "for number of cells compared to associated control: vs control; for % Change of average Cell Counts, GIT 27 vs DMSO treated vehicle: GIT 27 1000 μg/mL", "procedure": "PDMS Catheter Creation: Catheter samples were made by creating a polydimethylsiloxane (PDMS, silicone) solution, Sylgard 184 (Dow Corning), at a ratio of 10:1 elastomer to curing agent. This solution was then homogenized and placed into a degasser to remove bubbles. Once all the air bubbles were removed, 200 μL of the PDMS solution was pipetted into a 24 well plate to create flat disk samples for cell culturing. These samples were then degassed again to ensure were no bubbles in the disks and left for 48 hours to cure on a flat substrate.\nMedia Creation: A media stock solution was created by combining astrocyte media (ScienCell), supplement kit, 10 mL fetal bovine serum (FBS), 5 mL penicillin/streptomycin, and 5 mL astrocyte growth serum (ScienCell), and an additional 10 mL FBS (ScienCell). IL-1β and IL-10 were diluted to a concentration of 50,000 ng/mL and 100,000 ng/mL, respectively, in phosphate buffer solution (PBS, w/v). GIT 27 was dissolved in a dimethyl sulfoxide (DMSO) vehicle (Sigma-Aldrich) to a concentration of 20 mg/mL (w/v).\nMedia solutions for the different groups were made directly before each media change. Cytokines IL-1β or IL-10 were added to the media stock solution for a final concentration of 14.67 ng/mL. GIT 27 was added for a concentration of 1000 μg/mL in the media stock solution for our experimental group. […] Our vehicle group contained 50 μL/mL DMSO alone, which is proportional to the amount in the GIT 27 treated group. Concentrations were then made for evaluation of dose and time dependency (FIGS. 6A-6F).\nCell Culture: Human astrocyte cells were initially grown in T75 flasks with media changes every three days using basic astrocyte media and washed with Hanks Balanced Salt Solution without Calcium and Magnesium (Gibco). Once the flasks came to confluency, the cells were trypsinized using Trypsin-EDTA at 0.25% (Gibco) and seeded at a seeding density of 250,000 cells per well. These samples were broken up into three treatment groups: control, DMSO, and GIT 27 tested as a pre-treatment, simultaneous treatment, and post-treatment (FIGS. 6A-6F). Each group and treatment time were then either exposed to IL-1β or IL-10 separately at concentrations described for media creation.\nCell Count Collection: Images were taking using a microscope (Fisher Scientific) and microscope attachable digital camera following each media change on days 1, 5, 7, 9, 12, and 14. These images were taken at approximately the center of each 24 well plate well with an area of 5.9788 mm^2. Counts were obtained using the FIJI software by converting the images to 32-bit. Contrast was enhanced to the value of 0.5 and background was subtracted to a value of 10. Finally, the threshold was set to 23-70 to obtain the cell count of each image.\nStatistical Analysis: Three conditions were tested in this experiment, treatment group, treatment time, and IL B or IL10 exposure, with a total of 16 different samples tested with an n=five of replicates. The three treatment groups tested were a control, vehicle control (DMSO), and GIT 27 (G27). Each treatment group was tested as a pre-treatment (denoted Pre-), dose simultaneous to treatment (denoted Sim-), and post-treatment (denoted Post-) as time points with respect to shunt insertion represented by exposure to either IL-1β (IL1B) or IL-10 (IL10). Utilizing the abbreviations described here we combined these to allow for an easier understand of the results presented. An example of this can be control Pre-IL1B, DMSO Pre-IL1B, and G27 Pre-IL1B which represents the three treatment groups when used as a pre-treatment to IL-1β exposure.", "data": [{"smiles": "O=C(O)CC1CC(c2ccccc2)=NO1", "note": "(stereo not shown) [GIT 27, 4,5-Dihydro-3-phenyl-5-isoxazoleacetic acid]", "values": [{"measurement": "cell count by treatment time", "setting": "G27 Pre-IL1B compared to G27 Post-IL1B", "result": "significantly fewer"}, {"measurement": "cell count by treatment time", "setting": "G27 Pre-IL1B compared to Sim-IL1B", "result": "insignificantly less"}, {"measurement": "cell count by treatment time", "setting": "G27 Pre-IL10 compared to G27 Post-IL10", "result": "significantly fewer"}, {"measurement": "cell count by treatment time", "setting": "G27 Sim-IL10 compared to G27 Post-IL10", "result": "significantly lower"}, {"measurement": "number of cells compared to associated control", "setting": "Post-IL1B", "result": "not significantly different"}, {"measurement": "cell count, difference between the three treatment groups", "setting": "Post-IL10", "result": "no effect"}, {"measurement": "% Change of average Cell Counts, GIT 27 vs DMSO treated vehicle", "setting": "Post-Treatment (C), exposed to IL-1β", "result": 94.25, "unit": "%"}, {"measurement": "% Change of average Cell Counts, GIT 27 vs DMSO treated vehicle", "setting": "Post-Treatment (C), exposed to IL-10", "result": "−9.74", "unit": "%"}, {"measurement": "cell count compared to DMSO", "setting": "Pre-IL1B, vs DMSO Pre-IL1B", "result": "insignificantly lower"}, {"measurement": "cell count compared to control", "setting": "Pre-IL1B, vs control Pre-IL1B", "result": "significantly lower"}, {"measurement": "% Change of average Cell Counts, GIT 27 vs DMSO treated vehicle", "setting": "Pre-Treatment (A), exposed to IL-1β", "result": "−15.09", "unit": "%"}, {"measurement": "% Change of average Cell Counts, GIT 27 vs DMSO treated vehicle", "setting": "Pre-Treatment (A), exposed to IL-10", "result": 22.97, "unit": "%"}, {"measurement": "number of cells compared to associated control", "setting": "Sim-IL1B", "result": "not significantly different"}, {"measurement": "cell count, difference between the three treatment groups", "setting": "Sim-IL10", "result": "no effect"}, {"measurement": "% Change of average Cell Counts, GIT 27 vs DMSO treated vehicle", "setting": "Simultaneous Treatment (B), exposed to IL-1β", "result": 50.87, "unit": "%"}, {"measurement": "% Change of average Cell Counts, GIT 27 vs DMSO treated vehicle", "setting": "Simultaneous Treatment (B), exposed to IL-10", "result": "−5.50", "unit": "%"}]}]}
